In ChEMBL document CHEMBL4616661, “Sesquiterpenoids from Cultures of the Basidiomycetes Irpex lacteus” (J Nat Prod, 2020):
Activity calls are given as the source filed them. The rule behind the calls is not given here.

How the values were obtained:
Format in all cases: functional, cell-based
[1] = tested on: A549; assay: Cytotoxicity against human A549 cells assessed as reduction in cell viability up to 40 uM after 48 hrs by MTT assay
[2] = tested on: RAW264.7; assay: Inhibition of NO production in mouse RAW264.7 macrophages at 40 uM incubated for 18 hrs by Griess reagent based assay
[3] = tested on: HL-60; assay: Cytotoxicity against human HL60 cells assessed as reduction in cell viability up to 40 uM after 48 hrs by MTT assay
[4] = tested on: MCF7; assay: Cytotoxicity against human MCF7 cells assessed as reduction in cell viability up to 40 uM after 48 hrs by MTT assay
[5] = tested on: SMMC-7721; assay: Cytotoxicity against human SMMC7721 cells assessed as reduction in cell viability up to 40 uM after 48 hrs by MTT assay
[6] = tested on: SW480; assay: Cytotoxicity against human SW480 cells assessed as reduction in cell viability up to 40 uM after 48 hrs by MTT assay
[7] = tested on: MCF7; assay: Cytotoxicity against human MCF7 cells assessed as reduction in cell viability at 40 uM after 48 hrs by MTT assay
[8] = tested on: A549; assay: Cytotoxicity against human A549 cells assessed as reduction in cell viability at 40 uM after 48 hrs by MTT assay
[9] = tested on: SMMC-7721; assay: Cytotoxicity against human SMMC7721 cells assessed as reduction in cell viability at 40 uM after 48 hrs by MTT assay
[10] = tested on: SW480; assay: Cytotoxicity against human SW480 cells assessed as reduction in cell viability at 40 uM after 48 hrs by MTT assay
[11] = tested on: HL-60; assay: Cytotoxicity against human HL60 cells assessed as reduction in cell viability at 40 uM after 48 hrs by MTT assay
[12] = tested on: RAW264.7; assay: Inhibition of NO production in mouse RAW264.7 macrophages incubated for 18 hrs by Griess reagent based assay; details: RAW264.7, 18 h
[13] = tested on: B-cell line; assay: Immunosuppressive activity in BALB/c mouse B cells assessed as inhibition of LPS-induced cell proliferation by measuring reduction in uptake of [3H]-thymidine after 8 hrs by beta scintillation counting method
[14] = tested on: T-cell; assay: Immunosuppressive activity in BALB/c mouse T cells assessed as inhibition of ConA-induced cell proliferation by measuring reduction in uptake of [3H]-thymidine after 8 hrs by beta scintillation counting method

IC50 [12]	SMILES	Activity [1]	inhibition [2]	Activity [3]	Activity [4]	Activity [5]	Activity [6]	Activity [7]	Activity [8]	Activity [9]	Activity [10]	Activity [11]	IC50 [13]	IC50 [14]
–	C[C@@H]1C[C@H](O)C2=C(COC2=O)C2=C[C@](C)(CO)C[C@@H]21	Active	inactive	Active	Active	Active	Active	–	–	–	–	–	–	–
–	C[C@H]1[C@H]2CC(C)(C)C[C@@H]2C2=C(C[C@@H]1O)C(=O)OC2	–	inactive	–	–	–	–	inactive	inactive	inactive	inactive	inactive	–	–
22.7 µM	C[C@@H]1CC[C@H]2C(C(=O)O)=C[C@@H]3C[C@@](C)(C(=O)O)C[C@@]132	–	–	–	–	–	–	inactive	inactive	inactive	inactive	inactive	–	–
–	C[C@@H]1C[C@H](O)C2=C(COC2=O)C2=CC(C)(C)C[C@@H]21	Active	inactive	Active	Active	Active	Active	–	–	–	–	–	–	–
–	C[C@H]1C[C@@H](O)C2=C(COC2=O)[C@@H]2CC(C)(C)C[C@@H]12	–	inactive	–	–	–	–	inactive	inactive	inactive	inactive	inactive	–	–
–	C[C@@H]1C[C@H](O)C2=C(COC2=O)[C@]23O[C@H]2C(C)(C)C[C@]13O	–	inactive	–	–	–	–	inactive	inactive	inactive	inactive	inactive	–	–
–	Cc1ccc2c(c1)[C@H](C)C[C@H](O)[C@@H]1C(=O)OC[C@@H]21	–	inactive	–	–	–	–	inactive	inactive	inactive	inactive	inactive	22.4 µM	–
–	C[C@H]1CCC2=C(COC2=O)[C@@]2(O)CC(C)(C)C[C@@H]12	Active	inactive	Active	Active	Active	Active	–	–	–	–	–	–	–
–	C[C@H]1CCC2=C(COC2=O)[C@@H]2CC(C)(C)[C@H](O)[C@@H]12	Active	inactive	Active	Active	Active	Active	–	–	–	–	–	–	–
–	Cc1cc2c(cc1O)C1=C(CC[C@H]2C)C(=O)OC1	–	inactive	–	–	–	–	inactive	inactive	inactive	inactive	inactive	13.6 µM	16.7 µM
–	C[C@@H]1C[C@H](O)C2=C(COC2=O)[C@]23O[C@H]2C(C)(C)C[C@H]13	–	inactive	–	–	–	–	inactive	inactive	inactive	inactive	inactive	–	–
